For orientation: % Inhibition means the relative decrease from the control value, in per cent. High values mean a response far below the control, low ones a response near the control. By melting point is commonly meant the temperature of the solid-liquid transition. For orientation: IC50 means the concentration that inhibits the measured activity by half.

The values that follow come from patent US7288556B2, “Antiproliferative 1,2,3-thiadiazole compounds” (QLT Inc., priority 2000, dated 2007).

Bounds are passed on as bounds.

The first data set has as its system chick chorioallantoic membrane. In words: Chick chorioallantoic membrane (CAM) developmental angiogenesis assay. The following applies: 50 μm. The data set is classed as in vivo, chicken. Here is the method:
e. Chick chorioallantoic membrane assay (CAM assay): was performed on fertilized chicken eggs and used as a test for angiogenesis inhibition.
Approximately 4 dozen fertilized eggs were sprayed with 70% ETOH and placed in a 180 egg incubator (GQF Sportsman incubator). The eggs were incubated “rounded-side down” and were fully rotated along the vertical axis every 30 minutes at 37° C. under 90% relative humidity.
After 4 days, the eggs were placed upside down (round side up) for 5-10 minutes, before a round hole approximately 3 centimeters in diameter was created above the pointed end or “air hole” of the egg using sterile blunt-ended forceps (“deshelling”). The inner membrane was also removed, and the embryo was visible through this opening. A small portion of the outer membrane was then carefully removed using fine-tipped forceps in order to expose the CAM. Sterile Parafilm was placed over the de-shelled opening to create an airtight seal. The eggs were returned to the incubator (with no rotation) for 2 days.
Viable eggs were then treated with control and inhibitor compounds. Gelfoam™ gelatin sterile sponge (Upjohn) or 1-2 mm discs of methylcellulose saturated with physiological saline, buffer or an appropriate dilution of the compounds under investigation. The Gelfoam™ fragments of methylcellulose discs were added directly to the surface of the developing CAM. Care was taken not to add the treatment directly over a large vessel. The shells were marked in 3 places to aid in stereotactic localization of the treatment sponge or disc. An average of 6 eggs were included for each experimental condition. The treated eggs were returned to the incubator for 2 days.
The eggs were then assessed for blood vessel growth inhibition. Photomicrographs for records and visual examination were made using a Nikon dissecting microscope with an attached Nikon 35-mm camera body.
Take `NC(=O)c1nnsc1Nc1cccc2ccccc12` [KP 27301, 5-(Naphthalen-1-ylamino)-[1,2,3]thiadiazole-4-carboxylicacid amide]: the “% Inhibition” value is 100%. On the same count and under the same terms, the value for `CCNc1snnc1C(N)=O` [KP 27304, 5-Ethylamino-[1,2,3]thiadiazole-4-carboxylicacid amide] was 60%.

System in a further data set: not given
Test: not given
Settings: not given
`CN(c1ccccc1)c1snnc1C(N)=O` [KP 27420, 5-(Methylphenylamino)-[1,2,3]thiadiazole-4-carboxylicacid amide] displayed a melting point of 194 to 196 °C.

A further data set has as its target T1, integrin linked kinase (ILK1), full-length recombinant GST-ILK (Homo sapiens, UniProt Q13418).
T1 construct: The target integrin linked kinase is a full-length recombinant protein expressed in sF9 insect cells by baculovirus infection; made in house; host or cells: Baculovirus; virus amplified in Sf9 cells, protein expressed in Hi5 insect cells
T1 sequence (Q13418 1-452): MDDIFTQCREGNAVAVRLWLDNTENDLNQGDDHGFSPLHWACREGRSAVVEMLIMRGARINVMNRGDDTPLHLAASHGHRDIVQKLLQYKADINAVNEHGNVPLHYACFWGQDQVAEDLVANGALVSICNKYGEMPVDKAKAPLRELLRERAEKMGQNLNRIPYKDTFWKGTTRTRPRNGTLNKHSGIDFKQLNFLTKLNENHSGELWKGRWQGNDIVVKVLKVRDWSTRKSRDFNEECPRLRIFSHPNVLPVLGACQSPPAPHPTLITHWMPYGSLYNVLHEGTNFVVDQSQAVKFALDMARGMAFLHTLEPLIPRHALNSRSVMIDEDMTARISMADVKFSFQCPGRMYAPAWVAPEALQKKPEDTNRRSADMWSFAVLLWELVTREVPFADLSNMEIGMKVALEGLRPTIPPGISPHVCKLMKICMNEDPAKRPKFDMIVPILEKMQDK
In words: Integrin linked kinase inhibition assay (radioactive phosphate incorporation, scintillation counting).
Settings: not given
The data set is classed as biochemical. Here is the method: Compounds are screened using a series of disease related kinase targets, such as integrin linked kinase-1. Synthesized libraries of compounds are tested against each of the targets to find compounds that inhibit one of the targets preferentially.
Inhibition of the targets is measured by scintillation counting; the incorporation of radioactive phosphate onto a specific substrate which is immobilized onto a filter paper at the end of the assay. To provide meaningful measurements of inhibition, the assays are performed both in the absence and presence of specific and known inhibitors, and the amount of incorporated radioactivity is compared to provide a baseline measurement.
Inhibition Assay: Compounds listed in Table 1 were lyophilized and stored at −20° C. Stock solutions were made by weighing out the compounds and dissolving them in dimethyl sulfoxide (DMSO) to a standard concentration, usually 20 mM, and stored at −20° C. […] Diluted 100% DMSO was used as a negative control.
A volume of 5 μl of each compound dilution were robotically pipetted to Costar serocluster plates maintaining the same plate format. All assays consisted of the following volumes: • 5 μl diluted compound • 10 μl enzyme preparation • 5 μl substrate • 5 μl assay ATP and were then incubated 15 min at room temperature.
From each reaction, 10 μl of reaction mix was spotted onto Millipore Multiscreen-PH opaque plates and washed 2×10 min in 1% phosphoric acid. The plates were dried for at 40° C. for 30 min, then the substrate phosphate complexes were quantitated by scintillation counting. These Millipore plates are in a 96 well format with immobilized P81 phosphocellulose membranes. Both the phosphorylated and non-phosphorylated form of the substrate bind to the membrane while ATP (unincorporated phosphate) is removed in the subsequent wash steps.
Integrin Linked Kinase: The target integrin linked kinase is a full-length recombinant protein expressed in sF9 insect cells by baculovirus infection. The ILK1 substrate is […]-amide.
Recombinant ILK protein was expressed using cultured insect cells and a baculovirus expression system.
A large scale plasmid preparation of the resulting transfer construct was made using a Qiagen Plasmid Midi Kit. This ILK transfer construct was then co-transfected with BaculoGold DNA (Pharmingen) into Sf9 insect cells (Invitrogen) and a high titre preparation of GST-ILK recombinant baculovirus was produced by amplification in Sf9 cells. Liter scale expression of GST-ILK recombinant protein was done in 1000 ml spinner flasks (Bellco) by infection of Hi5 insect cells (Invitrogen) grown in Ex-Cell 400 Serum Free Media (JRH Biosciences) at a multiplicity of infection of approximately 5. The cells were harvested three days after infection and lysed in Hypotonic Lysis Buffer (HLB; 10 mM imidazole, 5 mM EDTA, 0.1% β-mercaptoethanol, 10 ug/ml PMSF, 1 mM benzamidine) by sonication. The lysate was centrifuged at 10,000×g for 20 min and the supernatant was discarded. The pellet was washed twice in HLB and then washed twice in High Salt Buffer (HSB; 500 mM NaCl, 10 mM imidazole, 5 mM EDTA, 0.1% β-mercaptoethanol, 10 ug/ml PMSF, 1 mM benzamidine). The pellet was then resuspended in DNAse-ATP Buffer (DAB; 10 mM MgCl2, 1 mM MnCl2, β-methyl aspartic acid, 2 mM NaF, 0.55 mg/ml ATP, 1 ug/ml DNAse I, 1% NP-40, 10 mM imidazole, 5 mM EDTA, 0.1% β-mercaptoethanol, 10 ug/ml PMSF, 1 mM benzamidine) and stirred for 30 min at room temperature, and then centrifuged at 10,000×g for 20 min. The pellet was resuspended in High Salt Detergent Buffer (HDB; 1% NP-40, 1% Triton X-100, 500 mM NaCl, 10 mM imidazole, 5 mM EDTA, 0.1% β-mercaptoethanol, 10 ug/ml PMSF, 1 mM benzamidine), stirred for 30 min at room temperature, and then centrufuged at 10,000×g for 20 min. The pellet was then washed once in each of HDB, HSB, and HLB, centrifuging at 10,000×g each time. Finally, the pellet was resuspended in HLB.
With `NC(=O)c1nnsc1Nc1ccc(Br)cc1` [KP 27296, 5-(4-Bromophenylamino)-[1,2,3]thiadiazole-4-carboxylicacid amide], the IC50 was above 20 µM. Turning to `COc1ccc(Nc2snnc2C(N)=O)cc1` [KP 27297, 5-(4-Methoxyphenylamino)-[1,2,3]thiadiazole-4-carboxylicacid amide], the IC50 was above 20 µM. For `CCOC(=O)Nc1snnc1C(N)=O` [KP 27298, (4-Carbamoyl-[1,2,3]thiadiazol-5-yl)-carbamicacid ethyl ester], the IC50 was above 20 µM. On the same count and under the same terms, with `NC(=O)c1nnsc1NC12CC3CC(CC(C3)C1)C2` [KP 27299, 5-(Adamantan-1-ylamino)-[1,2,3]thiadiazole-4-carboxylicacid amide] the figure was above 20 µM. Regarding `NC(=O)c1nnsc1NC1CCCCC1` [KP 27300, 5-Cyclohexylamino-[1,2,3]thiadiazole-4-carboxylicacid amide], the IC50 is above 20 µM. Same read-out and setting: with `NC(=O)c1nnsc1NCc1ccccc1` [KP 27302, 5-Benzylamino-[1,2,3]thiadiazole-4-carboxylicacid amide] the figure was above 20 µM; with `NC(=O)c1nnsc1NC(=O)c1ccccc1` [KP 27303, 5-Benzoylamino-[1,2,3]thiadiazole-4-carboxylicacid amide], above 20 µM.

Take `CCNc1snnc1C(N)=O` [KP 27304, 5-Ethylamino-[1,2,3]thiadiazole-4-carboxylicacid amide]: the IC50 was above 20 µM. Still for that read-out and setting: with `CCCCCCNc1snnc1C(N)=O` [KP 27305, 5-Hexylamino-[1,2,3]thiadiazole-4-carboxylicacid amide] the figure was above 20 µM; with `CN(c1ccccc1)c1snnc1C(N)=O` [KP 27420, 5-(Methylphenylamino)-[1,2,3]thiadiazole-4-carboxylicacid amide], above 20 µM. The same measure, in the same setting: with `CC(=O)NC(=O)c1nnsc1Nc1ccccc1` [KP 27421, 5-Phenylamino-[1,2,3]thiadiazole-4-carboxylicacid acetylamide] the figure was above 20 µM. On the same count and under the same terms, the value for `NCc1nnsc1Nc1ccccc1` [KP 27422, (4-Aminomethyl-[1,2,3]thiadiazol-5-yl)phenylamine] was above 20 µM; that for `O=C(O)c1nnsc1Nc1ccccc1` [KP-27271, 5-Phenylamino-[1,2,3]thiadiazole-4-carboxylicacid] was above 20 µM.
